Patent US8075562B2, “Controlled release of biopharmaceutical growth factors from hydroxyapatite coating on bioresorbable interference screws used in cruciate ligament reconstruction surgery” (Wisconsin Alumni Research Foundation, priority 2007, dated 2011)
Entries after “also recorded” stand apart in the source; their conditions may differ. Where two headings read alike, the source gives them in different places.

Tests used:
[1] = tested on: mesenchymal stem cells; experiment: Stem cell-based bioactivity assay (alkaline phosphatase upregulation, osteogenic differentiation)
[2] = Binding of engineered BMP-2 peptide to hydroxyapatite in solution; details: preliminary results
Source text: Binding growth factors to calcium phosphate minerals. Characterization of binding of engineered bone morphogenetic protein-2 peptide (eBMP-2) to CaP mineral materials is characterized. […] (See, FIGS. 10 and 11). […] (See, FIGS. 12 and 13). […] BMP-2 will be used because it has a high intrinsic affinity for CaP minerals.

KIPKA SSVPT ELSAI STLYL (KIPKASSVPTELSAISTLYL) [eBMP-2, engineered bone morphogenetic protein-2 peptide; hBMP-2: 73-92 (C78, 79S, M89T)]
osteogenic differentiation / alkaline phosphatase upregulation [1]: biologically active
osteogenic differentiation / alkaline phosphatase upregulation ([1]; listed as e-BMP-2): promotes osteogenic differentiation
binding to hydroxyapatite in solution [2]: forms strong ionic bonds to hydroxyapatite; also recorded: binds to the hydroxyapatite mineral in solution
